Reference: patent US20070027143A1, “Novel substituted 2,3-benzodiazepine derivatives” (priority 2003, published 2007)
Marks after values point to notes of the source that are not given here.

Tests used:
[1] = system: CD1 mice; assay: Muscle relaxant activity, inclined screen test; type: in vivo; details: Mus musculus, ip
[2] = system: rats; assay: Inhibition of focal ischemia, middle cerebral artery occlusion (MCAO) test; type: in vivo
Experimental: The focal anti-ischemic activity of the compounds of formula (I) or (II) of the present invention was measured by the “middle cerebral artery occlusion” (MCAO) test (Bartus Stroke 11:2265 (1994) and Sydserff et al, Brit. J. Pharmacol. 114:1631 (1995)). […] After a histological process (TTC staining) 24 h later, the infarcted area was determined by a computer assisted scanner program and was compared to the results obtained in a control group treated with the vehicle.

[3] = system: CD1 mice; assay: Anticonvulsant activity, 3-mercapto-propionic acid induced seizures; type: in vivo; details: Mus musculus; po.; read-out: 3-MPA ED50
Method in brief: (§1)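 Read-out: clonic-tonic seizures and lethality after chemical challenge in male CD1 mice, pretreated orally (three doses, ten animals each) typically 60 min earlier.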

[4] = system: CD1 mice; assay: Anticonvulsant activity, maximal electroshock seizure (MES) test; type: in vivo; details: Mus musculus, po.
[5] = system: CD1 mice; assay: Anticonvulsant activity, nicotine induced seizures; type: in vivo; details: Mus musculus; po.
Method in brief: as §1

[6] = system: CD1 mice; assay: Anti-tremor effect, oxotremorine induced tremor; type: in vivo; details: for ED50: Mus musculus, po., Litchfield-Wilcoxon, limits in brackets, read-out: ED50, tremor induced by Oxotremorin 1 mg/kg ip.
[7] = system: AMPA receptors; assay: Inhibition of AMPA induced spreading depression in isolated chicken retina; type: cell-based; details: AMPA (5 μM)
Experimental: (§2) In the first model the spreading depression caused by glutamate agonists (i.e., AMPA or kainate) was studied, while in the second one the transmembrane ion-current induced by the activation of the AMPA/kainate receptors was measured directly.
Inhibition of AMPA Induced “Spreading Depression” in Isolated Chicken Retina—
The AMPA antagonistic effect of the compounds of formula (I) or (II) was studied in the in vitro “spreading depression” model (Sheardown Brain Res. 607:189 (1993)). The AMPA antagonists prolong the latency of the development of the “spreading depression” caused by AMPA (5 μM).

[8] = system: CD1 mice; assay: Anti-tremor effect, GYKI 20039 induced tremor; type: in vivo; details: Mus musculus; po., Litchfield-Wilcoxon, limits in brackets; read-out: ED50, tremor induced by GYKI 20039 10 mg/kg ip.
[9] = system: BN rats; assay: Airway eosinophilia of ovalbumin sensitized, antigen challenged BN rats (BALF eosinophil count); type: in vivo; details: 3.0 mg/kg po, 2 hours pre-challenge, mean ± SE
Text: Bronchial hyperresponsiveness (BHR) and airway eosinophilia (AEP) are characteristic features of bronchial asthma. BHR is typified by an exaggerated response to a wide variety of stimuli that can induce an increased resistance to airflow in the airways. AEP is a result of prolonged eosinophil infiltration, mast cell, and T cell activation in the airways. In actively (e.g., ovalbumin) immunized rats (e.g., Brown Norway [BN] strain), repeated sensitization followed by antigenic challenge results in lung eosinophilia and bronchial hyperresponsiveness to different spasmogens (e.g., acetylcholine). This is the most frequently employed model for studying potential anti-asthmatic effects of new chemical entities.
BN rats were actively immunized with allergen (ovalbumin). On day one, rats were sensitized with the subcutaneous administration of ovalbumin suspended in Al(OH)3 (2.5 μg ovalbumin +20 mg Al(OH)3 in 0.5 ml saline). Booster injections (same dose and same route) were given at day 14 and 21. Simultaneously at each occasion 0.25 ml of Bordatella pentussis vaccine was injected intraperitoneally. On day 28, animals were challenged by inhalation of the antigen (vaporized 1% OVA solution for 1 hour). Test compounds were administered orally 2 hours pre-challenge.
48 hours following challenge, they were sacrificed by an overdose of urethane (4-5 ml of 15% urethane given i.p.), bronchoalveolar lavage fluid (BALF) was obtained, and tracheae dissected from the animals. Eosinophil cell count (cells/ml BALF) was determined manually using a selective stain for eosinophils and counting the cells in a Buerker chamber. BHR was determined using tracheal rings suspended in an organ bath. After an equilibration period of 30 minutes, cumulative concentration response curves to acetylcholine were determined. Maximal response of control (unchallenged, non-treated) tracheal rings is obtained at 10^−3 M acetylcholine. The height of this response is defined as 100%. All other contractions are expressed as a percentage and related to the control response.

[10] = system: CD1 mice; assay: Muscle relaxant activity, rotarod test; type: in vivo; details: Mus musculus, ip
[11] = system: AMPA/kainate receptors; assay: Inhibition of AMPA induced whole-cell current in acutely isolated cerebellar Purkinje cells (patch clamp); type: cell-based; details: 5 μM AMPA, read-out: Inhibition of the ion-currents caused by 5 μM AMPA, IC50
Experimental: as §2
The activity of the compounds of the present invention was studied on acutely isolated cerebellar Purkinje cells by measuring the whole-cell current induced by 5 μM AMPA according for example to the method described by Bleakman et al (Neuropharmacology 12:1689 (1996)).

[12] = system: Lewis rats; assay: Autoimmune encephalomyelitis model, histological symptoms; type: in vivo; details: day 24 after immunization
Experimental: 5-15 animals were used in each group. Their weights were 160-180 g (Lewis rats, female) and 180-220 g (Lewis rats, male). The activity of the compounds was determined according to the symptom score values, and compared to those of the control group (see Table 6). Histopathological investigations were carried out on the brain stem, the spinal cord, and the sciatic nerve (Gijbels et al., J. Clin. Invest. 94:2177 (1994)) using 5-10 animal/group.
Compounds of the invention were further investigated in the autoimmune encephalomyelitis model in rats as outlined in this description before, with the variance that 10 animals were used in each group, of weights 140-160 g (Lewis rats, female).

[13] = 0.5 h, 30′, read-out: MES 30′ ED50
[14] = 1 h, 60 min before induction, read-out: MES (MES 60′) ED50
[15] = 2 mg/kg iv. 6x in every 30 min, first treatment 120 min after occlusion
[16] = 2 mg/kg iv. 6x in every 30 min, first treatment 180 min after occlusion

SMILES	ED50 [1] [mg/kg]	ED50 [3] [mg/kg]	ED50 [4, 13] [mg/kg]	ED50 [4, 14] [mg/kg]	ED50 [5] [mg/kg]	ED50 [6] [mg/kg]	IC50 [7] [nM]	ED50 [8] [mg/kg]	BALF eosinophil number [9]	ED50 [10] [mg/kg]	IC50 [11] [nM]	Histological (histopathological) symptoms (change, %) ([12]; 1.875 mg/kg ip., female rats) [%]	Histological (histopathological) symptoms (change, %) ([12]; 3.75 mg/kg ip., female rats)	Decrease of the infracted area in % compared to that of the control [2, 15]	Decrease of the infracted area in % compared to that of the control [2, 16]	also measured
Cc1nnc(N2N=C(c3ccc(N)cc3)c3cc4c(cc3C[C@H]2C)OCO4)s1 [Example 86, (R)-5-(4-Aminophenyl)-8-methyl-7-(5-methyl-1,3,4-thiadiazol-2-yl)-8,9-dihydro-7H-1,3-dioxolo-[4,5-h][2,3]benzodiazepine]	3.9	4	4.3	6.1	16.5	4.3	420	6.8	1.32 ± 0.32 ×10^6/ml	0.8	60	−15	−20%	–	–	Decrease of the infracted area in % compared to that of the control ([2]; 1 mg/kg iv. 6x in every 30 min, first treatment 180 min after occlusion): 35* %; Neuroprotective activity when administered 3 h after the occlusion ([2]; result in words): significant activity; Anti-tremor activity compared to the reference compounds ([6]; oxotremorine, GYKI 20039 and harmaline, result in words): more active than the reference compounds GYKI 53773 and GYKI 52466; Histological symptoms (change, %) ([12]; 1.875 mg/kg ip., male rats): −25%; Histological symptoms (change, %) ([12]; 3.75 mg/kg ip., male rats): +4%; Histological symptoms (change, %) ([12]; 7.5 mg/kg ip., female rats): −22%; Histological symptoms (change, %) ([12]; 7.5 mg/kg ip., male rats): +1%; Histological symptoms (change, %) ([12]; 15 mg/kg ip., female rats): −53%; Histological symptoms (change, %) ([12]; 15 mg/kg ip., male rats): −66%
Cc1nnc(N2N=C(c3ccc(N)c(C)c3)c3cc4c(cc3C[C@H]2C)OCO4)s1 [Example 119, (R)-5-(4-amino-3-methylphenyl)-8-methyl-7-(5-methyl-1,3,4-thiadiazol-2-yl)-8,9-dihydro-7H-1,3-dioxolo-[4,5-h][2,3]benzodiazepine]	2.49	3.37	2.15	2.87	6.3	1.38	69	2.21	1.16 ± 0.24 ×10^6/ml	0.51	26	−8	+3%	56* %	44** %	Decrease of the infracted area in % compared to that of the control ([2]; 0.5 mg/kg iv. 6x in every 30 min, first treatment 120 min after occlusion): 7%; Decrease of the infracted area in % compared to that of the control ([2]; 1 mg/kg iv. 6x in every 30 min, first treatment 120 min after occlusion): 38%; Decrease of the infracted area in % compared to that of the control ([2]; 1.5 mg/kg iv. 6x in every 30 min, first treatment 120 min after occlusion): 51* %; Decrease of the infracted area in % compared to that of the control ([2]; 1.5 mg/kg iv. 6x in every 30 min, first treatment 180 min after occlusion): 21%; Decrease of the infracted area in % compared to that of the control ([2]; 2.0 mg/kg iv. 6x in every 30 min, first treatment 240 min after occlusion): 21%; Histopathological symptoms (change %) ([12]; 0.2 mg/kg i.p., female rats): +2%; Histopathological symptoms (change %) ([12]; 0.5 mg/kg i.p., female rats): −13%; Histopathological symptoms (change %) ([12]; 0.5 mg/kg p.o., female rats): −16%; Histopathological symptoms (change %) ([12]; 1.0 mg/kg i.p., female rats): −3%; Histopathological symptoms (change %) ([12]; 1.0 mg/kg p.o., female rats): −21%; Histopathological symptoms (change %) ([12]; 1.875 mg/kg p.o., female rats): −42%; Histopathological symptoms (change %) ([12]; 3.75 mg/kg p.o., female rats): −32%
CC(=O)N1N=C(c2ccc(N)cc2)c2cc3c(cc2C[C@H]1C)OCO3 [GYKI 53773, (R)-7-acetyl-5-(4-aminophenyl)-8,9-dihydro-8-methyl-7H-1,3-dioxolo[4,5-h][2,3]benzodiazepine, reference compound]	13.4	17.1	4.9	8.6	22.7	5.6	1200	10.6	1.29 ± 0.11 ×10^6/ml	2.3	1570	–	–	49** %	26%	Decrease of the infracted area in % compared to that of the control ([2]; 2 mg/kg iv. 6x in every 30 min, first treatment 30 min after occlusion): 47* %; Histological symptoms (change, %) ([12]; 30 mg/kg ip., female rats): −16%; Histological symptoms (change, %) ([12]; 30 mg/kg ip., male rats): +34%
